pKi: −log10 of the molar value.
Molecular target: voltage-gated Na channels
Assay type: cell-based, squid (Loligo opalescens)

## MKLTCVLVVLLLLLPYGDLITNNYIRGAARKVTPWRRNLKTRDVCDSLVGGHCIHNGCWCDQEAPHGNCCDTDGCTAAWWCPGTKWD [calTx1.1A]
  pKi: ~7.82
  Na-channel blocking activity (block): 55%
  reversibility of INa reduction/block: reversibly blocked INa
  steady-state voltage-dependence of fast inactivation of residual INa: not significantly affected
  time course of residual prepulse-sensitive INa: not significantly different than normal
  voltage dependence of block: potency decreasing e-fold in: 300-400 mV
